The compounds below were run against T1, human recombinant CBL-b (human Biotin CBL-b recombinant protein a.a. 39-426) (Homo sapiens, UniProt Q13191) (assay: Biochemical assay for CBL-b inhibition (ligand displacement TR-FRET)). Settings: 50 nM CBL-b, 0.3 μM Bodipy FL-Probe, read-out: IC50 (CBL-b inhibition, group).
T1 construct: human Biotin CBL-b recombinant protein a.a; 39-426; Biotin (biotinylated); made in house
Assay type: binding
Protocol: The inhibitory activity of the test compounds was assessed by Ligand displacement TR-FRET assay. The human recombinant CBL-b (human Biotin CBL-b recombinant protein a.a. 39-426; synthesised in-house) was diluted in enzyme assay buffer (20 mM HEPES, 150 mM NaCl, 0.01% Triton X, 0.01% BSA, 0.5 mM TCEP) in a 10 μl volume and plated in 384-well plates (Cat #781075, Greiner) to a final concentration of 50 nM. The enzyme/compound mixture was incubated at RT for 60 min. The Bodipy FL-Probe described in WO 2020/210508 (synthesized in-house) diluted in enzyme assay buffer was added to the plate and incubated for 60 min RT, the final probe concentration was 0.3 μM. After 60 min incubation, 10 μl of detection mix (Terbium Streptavidin, (Cat #PV3576, Invitrogen) diluted in 1× Lance buffer) was added and incubated for 60 min at room temperature. Time-resolved fluorescence (excitation, 320 nm; emission donor, 615 nm; emission acceptor, 665 nm) was monitored by using 2030 multilabel reader Victor5 (PerkinElmer). The IC50 (concentration for half maximal inhibition) and % maximum inhibition of the compounds were estimated by fitting the dose response data to a sigmoidal curve fitting equation using Graph pad Prism software V. 8.

T1 sequence (Q13191 39-426): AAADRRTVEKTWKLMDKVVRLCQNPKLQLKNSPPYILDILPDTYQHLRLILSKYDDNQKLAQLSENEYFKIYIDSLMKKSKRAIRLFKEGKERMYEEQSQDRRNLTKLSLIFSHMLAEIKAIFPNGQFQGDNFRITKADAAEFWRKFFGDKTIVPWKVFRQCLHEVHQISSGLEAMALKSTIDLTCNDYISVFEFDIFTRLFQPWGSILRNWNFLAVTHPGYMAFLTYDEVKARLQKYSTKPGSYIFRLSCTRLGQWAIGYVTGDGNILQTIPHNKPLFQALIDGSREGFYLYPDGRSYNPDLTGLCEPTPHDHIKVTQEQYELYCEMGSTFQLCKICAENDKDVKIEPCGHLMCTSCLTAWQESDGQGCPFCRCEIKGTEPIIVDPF

| IC50 [nM] | Compound |
| --- | --- |
| 300 to 5000 | Cn1cnnc1CC1(c2ccc3c(c2)C(=O)N(c2cc(CN4CCC(C(F)(F)F)CC4)cc(C(F)(F)F)n2)C3)COC1 [Compound 38, 6-(3-((4-Methyl-4H-1,2,4-triazol-3-yl)methyl)oxetan-3-yl)-2-(6-(trifluoro-methyl)-4-((4-(trifluoromethyl)piperidin-1-yl)methyl)pyridin-2-yl)isoindolin-1-one] |
| 300 to 5000 | Cn1cnnc1CC1(c2ccc3c(c2)C(=O)N(c2cc(CN4CCC(O)CC4)cc(C(F)(F)F)n2)C3)COC1 [Compound 43, 2-(4-((4-Hydroxypiperidin-1-yl)methyl)-6-(trifluoromethyl)pyridin-2-yl)-6-(3-((4-methyl-4H-1,2,4-triazol-3-yl)methyl)oxetan-3-yl)isoindolin-1-one] |
| 300 to 5000 | Cn1cnnc1CC1(c2ccc3c(c2)C(=O)N(c2cc(CN4CCC5(CCCO5)C4)cc(C(F)(F)F)n2)C3)COC1 (centres unmarked) [Compound 50, 2-(4-((1-Oxa-7-azaspiro[4.4]nonan-7-yl)methyl)-6-(trifluoromethyl)pyridin-2-yl)-6-(3-((4-methyl-4H-1,2,4-triazol-3-yl)methyl)oxetan-3-yl)isoindolin-1-one] |
| 300 to 5000 | Cc1nccn1Cc1cc(N2Cc3ccc(C4(Cc5nncn5C)COC4)cc3C2=O)nc(C(F)(F)F)c1 [Compound 54, 2-(4-((2-Methyl-1H-imidazol-1-yl)methyl)-6-(trifluoromethyl)pyridin-2-yl)-6-(3-((4-methyl-4H-1,2,4-triazol-3-yl)methyl)oxetan-3-yl)isoindolin-1-one] |
| 300 to 5000 | Cn1cnnc1CC1(c2ccc3c(c2)C(=O)N(c2cc(CN4CC5(COC5)C4)cc(C(F)(F)F)n2)C3)COC1 [Compound 55, 2-(4-((2-Oxa-6-azaspiro[3.3]heptan-6-yl)methyl)-6-(trifluoromethyl)pyridin-2-yl)-6-(3-((4-methyl-4H-1,2,4-triazol-3-yl)methyl)oxetan-3-yl)isoindolin-1-one] |
| 80 to 300 | CN1CCN(Cc2cc(N3Cc4ccc(C5(Cc6nncn6C)COC5)cc4C3=O)nc(C(F)(F)F)c2)CC1=O [Compound 63, 2-(4-((4-Methyl-3-oxopiperazin-1-yl)methyl)-6-(trifluoromethyl)pyridin-2-yl)-6-(3-((4-methyl-4H-1,2,4-triazol-3-yl)methyl)oxetan-3-yl)isoindolin-1-one] |
| 300 to 5000 | Cc1cncn1Cc1cc(N2Cc3ccc(C4(Cc5nncn5C)COC4)cc3C2=O)nc(C(F)(F)F)c1 [Compound 69, 2-(4-((5-Methyl-1H-imidazol-1-yl)methyl)-6-(trifluoromethyl)pyridin-2-yl)-6-(3-((4-methyl-4H-1,2,4-triazol-3-yl)methyl)oxetan-3-yl)isoindolin-1-one] |
| 300 to 5000 | Cc1cn(Cc2cc(N3Cc4ccc(C5(Cc6nncn6C)COC5)cc4C3=O)nc(C(F)(F)F)c2)cn1 [Compound 70, 2-(4-((4-Methyl-1H-imidazol-1-yl)methyl)-6-(trifluoromethyl)pyridin-2-yl)-6-(3-((4-methyl-4H-1,2,4-triazol-3-yl)methyl)oxetan-3-yl)isoindolin-1-one] |
| 300 to 5000 | C[C@@H]1CN(Cc2cc(N3Cc4ccc(C5(Cc6nncn6C)COC5)cc4C3=O)nc(C(F)(F)F)c2)C[C@H](C)O1 [Compound 72, 2-(4-(((2R,6S)-2,6-Dimethylmorpholino)methyl)-6-(trifluoromethyl)pyridin-2-yl)-6-(3-((4-methyl-4H-1,2,4-triazol-3-yl)methyl)oxetan-3-yl)isoindolin-1-one] |
| 300 to 5000 | CCNCCc1cc(N2Cc3ccc(C4(Cc5nncn5C)COC4)cc3C2=O)cc(C(F)(F)F)c1 [Compound 75, 2-(3-(2-(Ethylamino)ethyl)-5-(trifluoromethyl)phenyl)-6-(3-((4-methyl-4H-1,2,4-triazol-3-yl)methyl)oxetan-3-yl)isoindolin-1-one] |
| 300 to 5000 | Cc1cc(N2Cc3ccc(C4(Cc5nncn5C)COC4)cc3C2=O)cc2c1cnn2CCN(C)C [Compound 76, 2-(1-(2-(Dimethylamino)ethyl)-4-methyl-1H-indazol-6-yl)-6-(3-((4-methyl-4H-1,2,4-triazol-3-yl)methyl)oxetan-3-yl)isoindolin-1-one] |

Source: patent publication US20260226073A1 (AURIGENE ONCOLOGY LIMITED, priority 2023, published 2026)
